Results on three compounds are retold here after PMC11280343, “Rubus urticifolius Compounds with Antioxidant Activity, and Inhibition Potential against Tyrosinase, Melanin, Hyaluronidase, Elastase, and Collagenase” (Pharmaceuticals, 2024).

The nature of data set [1]: NR viability assay, HEK001. In kind it is cell-based, Homo sapiens. Conditions: human. The procedure:
(§1) The HEK001 (Homo sapiens cutaneous keratinocyte, CCL-2404), WS1 (Homo sapiens cutaneous fibroblast, CRL-1502), HMCB (Homo sapiens cutaneous melanoma, CRL-9607), and THP-1 (Homo sapiens peripheral blood monocyte, TIB-202) cell lines used in this study were obtained from the American Type Culture Collection (ATCC, Manassas, VA, USA). Cultivated in a Roswell Park Memorial Institute (RPMI) 1640 medium (RPMI 1640 Merck, Cat. No. R7755, New York, NY, USA) supplemented with 2 mM L-glutamine (≥99% Merck, Cat. No. 56-85-9), 10% fetal bovine serum (FBS Merck, Cat. No. TMS-016, St. Louis, MO, USA), and 10,000 units of penicillin and 10 mg streptomycin/mL (Merck, Cat. No. P4333, St. Louis, MO, USA) in culture flasks, the cells were maintained in an incubator under normoxic conditions (20–21% O2) and a humidified atmosphere (5% CO2 at 37 °C).
(§2) Mother solutions of samples (extracts, fractions, and compounds) were prepared at a concentration of […] using dimethyl sulfoxide (DMSO ≥ 99.9% Merck, Cat. No. 67-68-5, St. Louis, MO, USA) as the solvent. From these mother solutions, dilutions were prepared at concentrations ranging from 100 to 0.20 μg/mL or μM in culture medium containing 0.5% DMSO. Additionally, a negative control group consisting solely of culture medium with 0.5% DMSO was included to assess its potential cytotoxic effect on the cells.
(§3) Cell viability was evaluated using a colorimetric assay in 96-well plates, employing 3-amino-7-dimethylamino-2-methylphenazine hydrochloride salt reagent (NR, Merck, Cat. No. 553-24-2, St. Louis, MO, USA).
(§4) HEK001, WS1, HMCB, and THP-1 cell lines were cultured in 96-well plates at 37 °C with 5% CO2 until > 90% confluency was achieved (1 × 10^6 cells/well). Subsequently, the cultures were treated with sample dilutions (100–0.20 μg/mL or μM) for 72 h at 37 °C with 5% CO2 in phenol red-free RPMI. The supernatant was then discarded and the cells were washed with phosphate-buffered saline (PBS) before being incubated with […] NR (50 μg/mL; 173 μM) for 3 h at 37 °C with 5% CO2. NR labelling was performed after DMSO treatment. After incubation, the labelled sample dilutions were rapidly washed with a fixative solution composed of 1% calcium chloride (CaCl2 Merck, Cat. No. 10043-52-4, St. Louis, MO, USA) and 0.5% formaldehyde solution (≥36.0% in H2O Merck, Cat. No. 50-00-0, St. Louis, MO, USA), then diluted with 100 μL of the NR extraction solution. Finally, the plates were read at 540 nm using a microplate reader (Anthos 2020, version 2.0.5, Biochrom Ltd., Cambridge, UK).

The next data set in a line: NR viability assay, WS1. Conditions: human. The data set is classed as cell-based, Homo sapiens. The procedure:
as §1, §2, §3, §4

Data set [2] concerns NF-κB. Briefly: NF-κB inhibition assay (LPS-stimulated), WS1. In kind it is cell-based. The following applies: Homo sapiens, 72 h, read-out: NF-κB Inhibition at 72 h IC50 ± SEM. Here is the method: (§5) To determine the anti-inflammatory activity of the samples (at the same concentration as in the viability assay), NF-κB inhibition assay was used, following the protocol carried out by Apaza Ticona et al.. Cells were cultured in 96-well plates (1 × 10^6 cells/well). […] Absorbance was measured at 450 nm using a microplate reader.

Data set [3] has as its system NF-κB. Kind of data set: NF-κB inhibition assay (LPS-stimulated), HMCB. The data set is classed as cell-based. The following applies: Homo sapiens, 72 h, read-out: NF-κB Inhibition at 72 h IC50 ± SEM. The procedure:
as §5

Data set [4] deals with Nrf2. Briefly: Nrf2 activation assay, HEK001. In kind it is cell-based. The procedure: (§6) To determine the antioxidant response of the samples (at the same concentration as in the viability assay), Nrf2 activation assay was used, following the protocol carried out by Apaza Ticona et al.. Cells were cultured in 96-well plates (1 × 10^6 cells/well). […] Absorbance was measured at 540 nm using a microplate reader.

The subject of data set [5] is Nrf2. Briefly: Nrf2 activation assay, WS1. In kind it is cell-based. The following applies: Homo sapiens, read-out: Activation of Nrf2 production EC50. Here is the method:
as §6

Data set [6] deals with Nrf2. Briefly: Nrf2 activation assay, HMCB. The data set is classed as cell-based. The following applies: Homo sapiens, 72 h, read-out: Activation of Nrf2 production EC50. Here is the method:
as §6

Data set [7] addresses T1, elastase from porcine pancreas (Sus scrofa, UniProt P00772).
T1 construct: elastase from porcine pancreas (7.5 units/mL); from tissue; host or cells: porcine pancreas
Kind of data set: Elastase-inhibitory effect assay. The data set is classed as biochemical. The following applies: for Elastase Inhibition (%): inhibition percentage 'at an IC50', concentration not otherwise stated. The procedure:
The elastase-inhibitory effect was evaluated, implementing the protocol adapted from Tu and Tawata.
A mixture containing N-succinyl-Ala-Ala-Ala-p-nitroanilide (AAAPVN, Merck, Cat. No. 52299-14-6, St. Louis, MO, USA) elastase substrate in 0.1232 M Tris-HCl buffer solution (pH 8) was prepared to achieve a concentration of 1.015 mM. This elastase substrate was combined with 10 μL of the test samples at the same concentrations used as in the viability assay in 96-well plates and pre-incubated at room temperature (25 ± 5 °C) for 10 min. Subsequently, the reaction was initiated by adding 10 μL of elastase from porcine pancreas (7.5 units/mL) in Tris buffer solution to the pre-incubated mixtures. Absorbance was then measured at 410 nm using a microplate reader.

Setting [8] is: Homo sapiens, HEK001, 72 h; read-out: Activation of Nrf2 production EC50.

Read-outs that look alike come from different tables or passages of the source.

T1 sequence (P00772 27-266): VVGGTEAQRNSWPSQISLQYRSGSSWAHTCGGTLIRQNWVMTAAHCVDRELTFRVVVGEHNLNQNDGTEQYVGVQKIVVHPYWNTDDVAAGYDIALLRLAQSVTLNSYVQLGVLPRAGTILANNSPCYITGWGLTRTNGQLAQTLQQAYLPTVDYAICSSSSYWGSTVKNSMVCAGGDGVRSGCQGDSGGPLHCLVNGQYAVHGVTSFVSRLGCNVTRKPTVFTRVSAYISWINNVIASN

On to `CNC(=O)c1ccccc1NC(=O)/C=C/c1ccc(OC)c(OC)c1` [Compound 1, (E)-2-(3-(3,4-dimethoxyphenyl)acrylamido)-N-methylbenzamide], for which the CC50 at 72 h stood at 76.2 µM in data set [1] (HEK001 cells (cutaneous keratinocytes), HEK001, NR assay, 72 h, read-out: Viability CC50) and 73 µM in the data set “NR viability assay, WS1” (WS1 cells (cutaneous fibroblasts), WS1, NR assay, 72 h, read-out: Viability CC50). In addition, the concentration for half-maximal inhibition (IC50) in the data set with NF-κB [2] (WS1, LPS-stimulated) was 11 ± 0.67 µM; with NF-κB [3] (LPS-stimulated) it was 9.82 ± 0.65 µM; in data set [7] (read-out: Anti-Elastase IC50), 80.1 ± 1.92 µM. The EC50 with Nrf2 [4] (setting [8]) amounted to 0.202 µM; with Nrf2 [5] (WS1, 72 h), 0.268 µM; in the data set on Nrf2 [6], 0.385 µM. Further, the “Elastase Inhibition (%)” value in data set [7] is 60.76 ± 1.44%.
For `O=C(O)c1cc(O)c2ccccc2n1` [Compound 2, 4-hydroxyquinoline-2-carboxylic acid], the CC50 at 72 h in data set [1] was 95 µM; in “NR viability assay, WS1”, 89.9 µM. Also, the IC50 with NF-κB [2] (WS1, LPS-stimulated) came out at 32.7 ± 0.51 µM; in the data set on NF-κB [3] (LPS-stimulated) it was 30.7 ± 0.98 µM; in data set [7] (read-out: Anti-Elastase IC50) it was 168 ± 3.09 µM. Also, the EC50 with Nrf2 [4] (setting [8]) was found to be 0.32 µM; in the data set with Nrf2 [5] (WS1, 72 h), 0.361 µM; in the data set on Nrf2 [6], 0.506 µM. Moreover, the “Elastase Inhibition (%)” value in data set [7] stood at 17.68 ± 1.46%.
In the case of `N#C/C(=C\c1ccc(O)cc1)C(=O)O` [Compound 3, (E)-2-cyano-3-(4-hydroxyphenyl)acrylic acid], the CC50 at 72 h in data set [1] (HEK001, NR assay, 72 h, read-out: Viability CC50) came to 130 µM; in “NR viability assay, WS1” (WS1, NR assay, 72 h, read-out: Viability CC50), 107 µM. In addition, the half-maximal inhibitory concentration (IC50) is 53.21 ± 0.23 µM in the data set on NF-κB [2], 51.42 ± 0.13 µM in the data set with NF-κB [3] and 192 ± 3.78 µM in data set [7]. Besides, the EC50 with Nrf2 [4] (Homo sapiens, HEK001, 72 h, read-out: Activation of Nrf2 production EC50) worked out at 0.951 µM; in the data set on Nrf2 [5] (72 h) it was 0.983 µM; with Nrf2 [6] it was 1.02 µM. For the same compound, the “Elastase Inhibition (%)” value in data set [7] is on record as 6.19 ± 1.44%.

What is called CC50 is the concentration that lowers cell viability or growth by half. A word on the IC50: it is the concentration needed to halve the response being measured. By EC50 is commonly meant the concentration needed to bring the measured effect to its halfway point.
